Results published in patent publication US20040141912A1, “Method for targeting chemical compounds to cells and pharmaceutical compositions used therein” (priority 2001, published 2004).
“Also recorded” adds a separate entry of the source.

Tests used:
Jurkat cells = test: Fluorescent microscopy of DDL uptake by Jurkat cells induced to undergo apoptosis by anti-Fas antibody; assay type: cell-based, human
Experimental: FIG. 1: Jurkat cells were treated with anti-Fas antibody (0.1 μg/ml) for three hours. As a result, a marked percentage of the cells became apoptotic (i.e., PLS-activated cells). For subsequent inhibition of PLS, culture was then treated for 30 minutes with EGTA (1 mM) and BAPTA (20 μM), (i.e., PLS-inhibited culture). Both cultures were treated with DDL (1 μM, 2 minutes) and visualized by a fluorescent microscope (Olympus):
Cultured Jurkat cells (human adult T cell leukemia cells) were grown in suspension in RPMI medium (Beit-Haemek, Israel), supplemented with 10% of fetal calf serum (FCS), 4 mM of L-glutamine, 1 mM of sodium pyruvate, 1 mM CaCl2 and antibiotics (100 units/ml penicilin; 100 μg/ml streptomycin and 12.5 units/ml of nystatin). Prior to induction of apoptosis, medium was replaced with HBS buffer (10 mM HEPES; 140 mM NaCl, 1 mM CaCl). Apoptosis was then triggered by treatment with anti-Fas Ab (0.1 μg/ml; 3 hrs).
Such a procedure culminates in accumulation of a large percentage of apoptotic cells within the culture. Culture was then incubated with DDL at a final concentration of 1 μM for 5 minutes, and then taken immediately for fluorescent microscopy [Olympus fluorescent microscope, model IX70, excitation wavelength of 360 nm, emission at 530 nm].
Modulation of PLS activity was achieved by the calcium depletion-repletion procedure (Momchilova, A., et al., 2000). Inhibition of PLS by Ca^2+-deprivation was performed by cell incubation with the extra-and intracellular chelating agents EGTA (Ethylen glycol-bis (β-aminoethyl ether)-N,N,N′-tetraacetic acid, 1 mM) and BAPTA-AM ([1,2-bis(o-Amino-phenoxy) ethane-N,N,N′,N′-tetraacetic acid tetra-(acetoxymethyl) ester, 20 μM, respectively. Such a procedure eliminates any traces of Ca^2+ possibly present either intra- or extra-cellularly. Subsequent to the induction of apoptosis for three hours, cells were subjected to said PLS inhibition for 30 minutes. Cells were then incubated with DDL for 5 minutes, and subjected to fluorescent microscopy.
For re-activation of PLS, the EGTA/BAPTA-treated cells were now treated with CaCl (1 mM) and calcium ionophore A23187 (2 μM, Calbiochem, Darmstadt, Germany), thus elevating ambient Ca^2+ levels.

HeLa S3 cells = test: Flow-cytometric (FACS) analysis of DDL binding to apoptotic cells in aged HeLa culture; assay type: cell-based; details: HeLa aged 96 h
Experimental: FIG. 2: HeLa cells were allowed to age by incubating the culture for 96 hours without exchange of the growth medium. As a result, a marked percentage of the cells became apoptotic. Cells were then incubated with DDL (1 μM, 2 minutes) under three different conditions: PLS-activation; PLS-inhibition; and reactivation of inhibited-PLS as defined above. Shown is quantitative analysis of fluorescence intensity (geomean) values.
For this purpose, cultured, aged HeLa S3 cells (ATCC CCL-2.2) were grown in Dulbecco's modified Eagle's medium (DMEM), containing CaCl (1.8 mM) and supplemented with 2 mM of L-glutamine; 100 units/ml of penicillin; 100 μg/ml of streptomycin; 12.5 units/ml of nystatin and 10% of fetal calf serum (FCS). Cells were seeded at a density of 5×10^6 cells/plate on a […] culture plates in a volume of 10 ml, and were allowed to age in culture for 96 hours without exchange of the growing medium. Such a procedure culminates in a large percentage of apoptotic cells within the culture. Culture (1×10^7/ml) was then incubated with DDL at a final concentration of 5 μM in HBS for 5 minutes, and taken immediately for FACS analysis for detection of bound DDL, using Becton-Dickinson cell sorter and CellQuest software. Excitation was at 360 nm and emission was measured at 530 nm.
Three different conditions were examined (FIG. 2): PLS-activation by the apoptotic process, PLS-inhibition; and reactivation of inhibited-PLS.

SMILES: CN(C)c1cccc2c(S(=O)(=O)NCCCCC(NS(=O)(=O)c3cccc4c(N(C)C)cccc34)C(=O)O)cccc12 (centres unmarked) [DDL]
- DDL uptake after re-activation of PLS (Jurkat cells; EGTA/BAPTA-treated cells + Ca2+ 1 mM + calcium ionophore A23187 2 μM): re-acquisition of a strong DDL uptake; also recorded: fast, selective and marked uptake
- DDL uptake (fluorescence) by apoptotic cells (Jurkat cells; PLS-activated culture, anti-Fas Ab 0.1 μg/ml 3 h, DDL 1 μM): Some of the cells manifest DDL binding; also recorded: Selective and fast uptake
- Intracellular localisation of DDL fluorescence (Jurkat cells; apoptotic cells): staining the cytoplasm but not the nucleus; also recorded: in the cytoplasm of those cells but not within the nuclei
- DDL uptake (fluorescence intensity) after PLS inhibition (Jurkat cells; apoptotic cells, Ca2+-deprivation: EGTA 1 mM + BAPTA 20 μM, 30 min, DDL 1 μM): marked reduction in the intensity of DDL-binding; also recorded: marked decrease in DDL uptake
- DDL binding by intact cells not undergoing apoptosis (Jurkat cells; same culture, DDL 1 μM): did not bind manifest significant DDL
- DDL binding (fluorescence shift) after reactivation of PLS (HeLa S3 cells; Ca2+ re-administration): restored this shift
- DDL binding (fluorescence shift) after PLS inhibition (HeLa S3 cells; Ca2+-deprivation): almost completely abolished this shift
- DDL binding (fluorescence shift), PLS-activated apoptotic cells (HeLa S3 cells; PLS-activation by the apoptotic process): distinct shift to higher fluorescence levels
